Earlier results in patent publication US20050208598A1 (priority 2004, published 2005).

Molecular target: avidin (Gallus gallus, UniProt P02701)
Conditions: read-out: Kd of binding to avidin

Chain of avidin (P02701 25-152, species assumed): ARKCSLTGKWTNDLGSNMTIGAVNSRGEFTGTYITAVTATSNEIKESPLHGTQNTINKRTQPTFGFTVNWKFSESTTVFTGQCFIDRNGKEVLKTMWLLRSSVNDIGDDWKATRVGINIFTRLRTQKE

| SMILES | Kd [µM] |
| --- | --- |
| O=C(O)c1ccccc1N=Nc1ccc(O)cc1 [HABA, 2-(4-hydroxyphenylazo)benzoic acid] | ~6 |
| C[C@@H]1NC(=O)N[C@@H]1CCCCCC(=O)O [desthiobiotin] | ~0.1 |
